According to ChEMBL document CHEMBL2074459, “Coordinate induction by antioxidants of UDP-glucuronosyltransferase UGT1A6 and the apical conjugate export pump MRP2 (multidrug resistance protein 2) in Caco-2 cells” (Biochem Pharmacol, 2000):

Target: ATP-binding cassette sub-family C member 2 (Homo sapiens, UniProt Q92887)
Assay: TP_TRANSPORTER: Immunoblot analysis in Caco-2 cells
Type: functional, cell-based

ATP-binding cassette sub-family C member 2, sequence (Q92887 whole entry): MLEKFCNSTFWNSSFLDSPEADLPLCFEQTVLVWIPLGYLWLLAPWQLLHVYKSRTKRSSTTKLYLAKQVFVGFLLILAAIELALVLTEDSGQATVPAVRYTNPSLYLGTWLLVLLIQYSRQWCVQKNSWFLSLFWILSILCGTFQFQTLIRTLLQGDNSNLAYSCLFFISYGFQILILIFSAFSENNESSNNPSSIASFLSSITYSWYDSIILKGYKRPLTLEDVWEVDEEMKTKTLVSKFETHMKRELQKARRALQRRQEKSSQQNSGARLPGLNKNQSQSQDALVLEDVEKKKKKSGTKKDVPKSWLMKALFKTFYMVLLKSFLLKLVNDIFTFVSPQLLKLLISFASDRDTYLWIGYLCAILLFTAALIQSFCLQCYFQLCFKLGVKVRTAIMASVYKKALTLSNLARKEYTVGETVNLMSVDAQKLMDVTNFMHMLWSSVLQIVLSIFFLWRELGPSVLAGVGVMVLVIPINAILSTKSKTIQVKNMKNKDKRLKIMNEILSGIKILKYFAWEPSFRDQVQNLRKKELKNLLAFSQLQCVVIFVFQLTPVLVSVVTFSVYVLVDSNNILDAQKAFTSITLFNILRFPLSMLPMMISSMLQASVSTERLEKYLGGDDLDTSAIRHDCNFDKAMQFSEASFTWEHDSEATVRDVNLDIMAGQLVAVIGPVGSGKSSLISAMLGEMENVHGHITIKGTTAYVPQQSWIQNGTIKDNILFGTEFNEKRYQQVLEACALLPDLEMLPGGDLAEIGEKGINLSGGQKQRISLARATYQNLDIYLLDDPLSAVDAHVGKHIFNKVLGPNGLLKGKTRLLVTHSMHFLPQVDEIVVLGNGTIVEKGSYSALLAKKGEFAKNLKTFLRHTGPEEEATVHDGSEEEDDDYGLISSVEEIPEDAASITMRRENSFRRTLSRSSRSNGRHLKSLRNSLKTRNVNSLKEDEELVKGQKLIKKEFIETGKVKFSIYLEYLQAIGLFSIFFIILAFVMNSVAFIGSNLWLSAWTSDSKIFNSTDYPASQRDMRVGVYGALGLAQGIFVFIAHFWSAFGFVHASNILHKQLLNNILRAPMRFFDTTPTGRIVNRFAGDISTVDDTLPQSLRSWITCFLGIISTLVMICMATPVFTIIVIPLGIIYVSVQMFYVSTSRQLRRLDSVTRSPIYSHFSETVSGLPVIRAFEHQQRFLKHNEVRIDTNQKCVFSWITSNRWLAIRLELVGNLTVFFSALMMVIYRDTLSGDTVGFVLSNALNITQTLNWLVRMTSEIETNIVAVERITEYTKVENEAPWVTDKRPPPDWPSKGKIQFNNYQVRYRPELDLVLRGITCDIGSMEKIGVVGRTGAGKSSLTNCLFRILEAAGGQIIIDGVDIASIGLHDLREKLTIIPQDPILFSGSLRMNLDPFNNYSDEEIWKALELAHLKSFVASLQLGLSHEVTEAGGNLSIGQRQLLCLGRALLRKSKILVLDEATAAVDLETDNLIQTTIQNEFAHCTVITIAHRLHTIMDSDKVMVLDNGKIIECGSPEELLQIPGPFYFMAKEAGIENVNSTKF

Question: How did the Activity turn out when `O=c1c(O)c(-c2ccc(O)c(O)c2)oc2cc(O)cc(O)c12` [QUERCETIN] was run?
Answer: Its Activity is “inducer [+]”.
